Data set [1] relates to HCT-116 (human colon carcinoma cells). The data set can be described thus: MTT cytotoxicity, HCT-116 cells. It is filed as cell-based. The following applies: Homo sapiens, HCT-116, 72 h exposure, three independent experiments, read-out: Cytotoxic activity IC50 (95% CI) HCT-116. The procedure:
(§1) Compounds were evaluated for antitumor activity in cell culture in vitro using several human cancer cell lines obtained from the National Cancer Institute, NCI (Bethesda, MD, USA). […] The L929 cells were cultivated under standard conditions in DMEM with Earle’s salts. […] At the end of the incubation time (72 h), the plates were centrifuged and the medium was replaced by fresh medium (200 μL) containing 0.5 mg/mL MTT. After 3 h, the MTT formazan product was dissolved in DMSO (150 μL) and the absorbance was measured using a multiplate reader (Spectra Count, Packard, ON, Canada). The impact of compounds on cell proliferation was quantified as the percentage of control absorbance of the reduced dye at 550 nm. All cell culture based studies were performed in triplicate. All cells were mycoplasma-free.

The nature of data set [2]: MTT cytotoxicity, L929 normal cells. The data set is classed as cell-based, mouse. Conditions: mouse, normal cell line, 72 h exposure, three independent experiments, read-out: Cytotoxic activity IC50 (95% CI) L929. The method, then:
as §1

The test system of data set [3] is NCIH-460 (human lung cells). The experiment in a line: MTT cytotoxicity, NCIH-460 cells. It is filed as cell-based. Conditions: Homo sapiens, NCI-H460, 72 h exposure, three independent experiments, read-out: Cytotoxic activity IC50 (95% CI) NCIH-460. The method, then:
as §1

In data set [4] the test system is PC3 (human prostate cancer cells). The experiment in a line: MTT cytotoxicity, PC3 cells. It is filed as cell-based. Conditions: Homo sapiens, PC-3, 72 h exposure, three independent experiments, read-out: Cytotoxic activity IC50 (95% CI) PC3. The method, then: as §1
Data set [5] relates to SF295 (human glioblastoma cells). The experiment in a line: MTT cytotoxicity, SF295 cells. The data set is classed as cell-based. The following applies: Homo sapiens, SF-295, 72 h exposure, three independent experiments, read-out: Cytotoxic activity IC50 (95% CI) SF295. The method, then:
as §1

Data set [6] concerns HL-60 (human promyelocytic leukemia cells). The experiment in a line: MTT cytotoxicity, HL-60 cells. The data set is classed as cell-based. Conditions: Homo sapiens, HL-60, 72 h exposure, three independent experiments, read-out: Cytotoxic activity IC50 (95% CI) HL-60. The method, then:
as §1

For the molecule `COc1ccc([Se]Cc2cn(C3C4=C(OC(C)(C)C3Br)c3ccccc3C(=O)C4=O)nn2)cc1` (centres unmarked) [Compound 19, 3-Bromo-4-(4-(((4-methoxyphenyl)selanyl)methyl)-1H-1,2,3-triazol-1-yl)-2,2-dimethyl-3,4-dihydro-2H-benzo[h]chromene-5,6-dione], the melting point (as a rule, the temperature, or range, at which the solid turns liquid) lay within 113.5 to 114.6 °C. Moreover, in data set [1], the IC50 (usually the concentration needed to halve the response being measured) is greater than 8000 nM. In data set [2], the 50% inhibitory concentration (IC50) at 72 h stood at 680 nM. In addition, in data set [3], the IC50 amounted to 2330 nM. In addition, the half-inhibitory concentration (IC50) in data set [4] turned out to be 1550 nM. Moreover, the IC50 in data set [5] stood at 1750 nM. Moreover, the half-inhibitory concentration (IC50) in data set [6] amounted to 1280 nM.

`CC1(C)OC2=C(C(=O)C(=O)c3ccccc32)C(n2cc(C[Se]c3cccs3)nn2)C1Br` (centres unmarked) [Compound 22, 3-Bromo-2,2-dimethyl-4-(4-((thiophen-2-ylselanyl)methyl)-1H-1,2,3-triazol-1-yl)-3,4-dihydro-2H-benzo[h]chromene-5,6-dione]: the melting point is 104.3 to 108.6 °C. The IC50 in data set [1] was greater than 8000 nM. In addition, the IC50 at 72 h in data set [2] was determined as 3160 nM. Also, the IC50 in data set [3] was 2750 nM. In addition, the IC50 in data set [4] is 2470 nM. For the same molecule, in data set [5], the half-maximal inhibitory concentration (IC50) was 2130 nM. The IC50 in data set [6] was 530 nM.

In the case of `COC1=C(Cn2cc(-c3ccccc3)nn2)C(=O)c2ccccc2C1=O` [Compound 9, 2-Methoxy-3-((4-phenyl-1H-1,2,3-triazol-1-yl)methyl)naphthalene-1,4-dione], the melting point fell in the range of 103.8 to 104.7 °C. For the same molecule, the IC50 in data set [1] is greater than 10000 nM. The IC50 at 72 h in data set [2] was greater than 10000 nM. Besides, the half-maximal inhibitory concentration (IC50) in data set [3] was greater than 10000 nM. Further, the IC50 in data set [4] is greater than 10000 nM. For the same molecule, the IC50 in data set [5] is greater than 10000 nM. Moreover, the 50% inhibitory concentration (IC50) in data set [6] amounted to 5390 nM.

The molecule `CC1(C)OC2=C(C(=O)C(=O)c3ccccc32)C(n2cc(CSc3ccccc3)nn2)C1Br` (centres unmarked) [Compound 24, 3-Bromo-2,2-dimethyl-4-(4-((phenylthio)methyl)-1H-1,2,3-triazol-1-yl)-3,4-dihydro-2H-benzo[h]chromene-5,6-dione] returned a melting point of 119.5 to 121.4 °C. In addition, in data set [1], the IC50 was 4380 nM. For the same molecule, in data set [2], the 50% inhibitory concentration (IC50) at 72 h stood at 840 nM. For the same molecule, the IC50 in data set [3] stood at 4910 nM. In addition, the IC50 in data set [4] is 2100 nM. In addition, the IC50 in data set [5] stood at 2340 nM. In addition, the IC50 in data set [6] came out at 1940 nM.

Take `COc1cccc2c1C(=O)c1c(O)c3c(c(O)c1C2=O)C[C@@](O)(C(=O)CO)C[C@@H]3O[C@H]1C[C@H](N)[C@H](O)[C@H](C)O1` [DOXO, Doxorubicin, reference compound]: the IC50 was found to be 210 nM in data set [1], 760 nM in data set [4] and 20 nM in data set [6]. Besides, the IC50 at 72 h in data set [2] was determined as 1720 nM.

Consider `O=C1C=C([Se]c2ccccc2)C(=O)c2ccccc21` [Compound 2, 2-(Phenylselanyl)naphthalene-1,4-dione], for which the IC50 in data set [1] was greater than 10000 nM; in data set [3], greater than 10000 nM; in data set [4] it was greater than 10000 nM; in data set [5], greater than 10000 nM; in data set [6], 1960 nM. Also, the 50% inhibitory concentration (IC50) at 72 h in data set [2] was greater than 10000 nM.

Turning to `COC1=C(CN=[N+]=[N-])C(=O)c2ccccc2C1=O` [Compound 8, 2-(Azidomethyl)-3-methoxynaphthalene-1,4-dione], the IC50 in data set [1], in data set [3], in data set [4], in data set [5] and in data set [6] was greater than 10000 nM in each case. The IC50 at 72 h in data set [2] was greater than 10000 nM.

Turning to `COC1=C(Cn2cc(C[Se]c3ccc(OC)cc3)nn2)C(=O)c2ccccc2C1=O` [Compound 15, 2-Methoxy-3-((4-(((4-methoxyphenyl)selanyl)methyl)-1H-1,2,3-triazol-1-yl)methyl)naphthalene-1,4-dione], the IC50 in data set [1], in data set [3], in data set [4], in data set [5] and in data set [6] was greater than 10000 nM each time. The IC50 at 72 h in data set [2] was greater than 10000 nM.

(Values after article PMC6017932, “Synthesis of Selenium-Quinone Hybrid Compounds with Potential Antitumor Activity via Rh-Catalyzed C-H Bond Activation and Click Reactions” (Molecules : A Journal of Synthetic Chemistry and Natural …, 2017).)
